Test results published in PubChem BioAssay (NCI).
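Interpolation was linear, between the two tested concentrations surrounding the appropriate level; five concentrations were tested over 48 hours in 96-well plates. GI50 marks 50% less growth. The concentration for full growth arrest is given as TGI.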 *1 amine or outer side, *2 acyl side, *3 side chain or, on linkers, in order; H or OH if unused. Where a SMILES comes first, the peptide text is derived from it. CO = O=C([*:1])[*:2]

Experiments:
Test in all cases: NCI-60 cell line screen, 48 h
SK-MEL-2 melanoma = system: SK-MEL-2 melanoma
MCF7 breast = system: MCF7 breast
786-0 renal = system: 786-0 renal
RPMI-8226 leukemia = system: RPMI-8226 leukemia
ACHN renal = system: ACHN renal
OVCAR-4 ovarian = system: OVCAR-4 ovarian
MDA-MB-435 = system: MDA-MB-435
SK-MEL-28 melanoma = system: SK-MEL-28 melanoma
MDA-MB-231 breast = system: MDA-MB-231 breast
T-47D breast = system: T-47D breast

| SMILES | GI50 (SK-MEL-2 melanoma) | TGI (SK-MEL-2 melanoma) | GI50 (MCF7 breast) | TGI (MCF7 breast) | GI50 (786-0 renal) | TGI (786-0 renal) | GI50 (RPMI-8226 leukemia) | TGI (RPMI-8226 leukemia) | GI50 (ACHN renal) | TGI (ACHN renal) | GI50 (OVCAR-4 ovarian) | TGI (OVCAR-4 ovarian) | GI50 (MDA-MB-435) | TGI (MDA-MB-435) | GI50 (SK-MEL-28 melanoma) | TGI (SK-MEL-28 melanoma) | GI50 (MDA-MB-231 breast) | TGI (MDA-MB-231 breast) | GI50 (T-47D breast) | TGI (T-47D breast) |
| --- | --- | --- | --- | --- | --- | --- | --- | --- | --- | --- | --- | --- | --- | --- | --- | --- | --- | --- | --- | --- |
| COc1cc(/C=C/C(=O)CC(=O)/C=C/c2ccc(OC(=O)CCNC34CC5CC(CC(C5)C3)C4)c(OC)c2)ccc1OC(=O)CCNC12CC3CC(CC(C3)C1)C2 | 4.48 µM | 16.3 µM | 2.36 µM | 9.89 µM | 3.2 µM | 21.3 µM | 2.1 µM | 6.01 µM | 11 µM | 23.6 µM | 11 µM | > 100 µM | 2.08 µM | 6.53 µM | 3.79 µM | 17.2 µM | 3.97 µM | 25.3 µM | 5.89 µM | 59.8 µM |
| CCCCCCCCO/N=C\c1c2c(O)c3c(O)c(C)c4c(c3c1O)C(=O)C(C)(O/C=C\C(OC)C(C)C(OC(C)=O)C(C)C(O)C(C)C(O)C(C)/C=C\C=C(\C)C(=O)N2)O4 (centres undefined) |  |  | 1.36 µM | 5.12 µM | 1.13 µM | 2.77 µM | 2.21 µM | 8.43 µM | 1.78 µM | 6.58 µM | 1.61 µM | 5.58 µM | 1.43 µM | 5.9 µM | 1.37 µM | 4.17 µM | 1.63 µM | 5.91 µM | 2.06 µM | 7.45 µM |
| COc1cc(/C=C2\C[C@H]3[C@@H]4CC=C5C[C@@H](OC(C)=O)CC[C@]5(C)[C@H]4CC[C@]3(C)[C@H]2OC(C)=O)ccc1OCCCn1ccnc1 | 16.7 µM | > 50 µM | 9.95 µM | 20.9 µM | 6.06 µM | 13.4 µM | 0.515 µM | 1.77 µM | 8.49 µM | 15.9 µM |  |  | 10.2 µM | 22.1 µM | 15.9 µM | > 50 µM | 8.2 µM | 16.6 µM | 16 µM | > 50 µM |
| CC(C)C(NC(=O)C(CCCN=C(N)N)NC(=O)NC(Cc1ccccc1)C(=O)O)C(=O)NC(C=O)CCCN=C(N)N (stereo not drawn) ({Phe-CO}-Arg-Val-Arg-aldehyde; configuration not given here) | > 5 µM | > 5 µM | > 5 µM | > 5 µM | > 5 µM | > 5 µM |  |  | > 5 µM | > 5 µM | > 5 µM | > 5 µM | > 5 µM | > 5 µM | > 5 µM | > 5 µM | > 5 µM | > 5 µM | > 5 µM | > 5 µM |
| O=C(/C=C/c1ccc2c(c1)OCO2)c1ccccc1 |  |  | 4.02 µM | 30 µM | 14.8 µM | 31 µM | 4.84 µM | > 100 µM | 17.5 µM | 40.9 µM | 24.8 µM | > 100 µM | 3.58 µM | 19.3 µM | 19.5 µM | 41.4 µM | 24.4 µM | 75.6 µM | 15.5 µM | 39.5 µM |
| O=C(CCc1ccc(O)c(O)c1)c1ccc(O)c(O)c1O |  | > 100 µM |  | 42 µM |  | > 100 µM |  |  |  | 28.4 µM |  | 78.5 µM |  | 62.2 µM |  | > 100 µM |  | 55.5 µM |  | 66.3 µM |
| O=C(c1cccs1)c1c(C(F)(F)F)n([O-])c2cc(C(F)(F)F)ccc2[n+]1=O | 0.915 µM | 2.46 µM | 0.187 µM | 0.41 µM | 0.171 µM | 0.319 µM | 0.211 µM | 0.59 µM | 0.159 µM | 0.303 µM |  |  | 0.315 µM | 0.877 µM | 0.694 µM | 2.09 µM | 0.177 µM | 0.345 µM | 0.154 µM | 0.4 µM |
